In ChEMBL document CHEMBL4507278 (2021):

How the values were obtained:
[1] = tested on: Tyrosine-protein kinase ABL1 (Homo sapiens), P00519 [Y253F]; settings: Compound concentration 1000.0 nM
[2] = biological target: Tyrosine-protein kinase ABL1 (Homo sapiens) (UniProt P00519); settings: Compound concentration 1000.0 nM
[3] = biological target: Activin receptor type-1B (Homo sapiens) (UniProt P36896); settings: Compound concentration 1000.0 nM
[4] = biological target: Activin receptor type-2A (Homo sapiens) (UniProt P27037); settings: Compound concentration 1000.0 nM
[5] = biological target: Atypical kinase COQ8A, mitochondrial (Homo sapiens) (UniProt Q8NI60); settings: Compound concentration 1000.0 nM
[6] = biological target: Atypical kinase COQ8B, mitochondrial (Homo sapiens) (UniProt Q96D53); settings: Compound concentration 1000.0 nM
[7] = biological target: Aurora kinase A (Homo sapiens) (UniProt O14965); settings: Compound concentration 1000.0 nM
[8] = biological target: Protein-tyrosine kinase 6 (Homo sapiens) (UniProt Q13882); settings: Compound concentration 1000.0 nM
[9] = biological target: Cyclin-dependent kinase 7 (Homo sapiens) (UniProt P50613); settings: Compound concentration 1000.0 nM
[10] = biological target: Cyclin-dependent kinase-like 1 (Homo sapiens) (UniProt Q00532); settings: Compound concentration 1000.0 nM
[11] = biological target: Casein kinase I isoform gamma-3 (Homo sapiens) (UniProt Q9Y6M4); settings: Compound concentration 1000.0 nM
[12] = biological target: Serine/threonine-protein kinase DCLK2 (Homo sapiens) (UniProt Q8N568); settings: Compound concentration 1000.0 nM
[13] = biological target: Dual specificity tyrosine-phosphorylation-regulated kinase 2 (Homo sapiens) (UniProt Q92630); settings: Compound concentration 1000.0 nM
[14] = biological target: Epidermal growth factor receptor (Homo sapiens) (UniProt P00533); settings: Compound concentration 1000.0 nM
[15] = biological target: Ephrin type-A receptor 1 (Homo sapiens) (UniProt P21709); settings: Compound concentration 1000.0 nM
[16] = biological target: Mitogen-activated protein kinase 3 (Homo sapiens) (UniProt P27361); settings: Compound concentration 1000.0 nM
[17] = biological target: Fibroblast growth factor receptor 3 (Homo sapiens) (UniProt P22607); settings: Compound concentration 1000.0 nM
[18] = biological target: Tyrosine-protein kinase Fgr (Homo sapiens) (UniProt P09769); settings: Compound concentration 1000.0 nM
[19] = tested on: Receptor-type tyrosine-protein kinase FLT3 (Homo sapiens), P36888 [UNDEFINED MUTATION]; settings: Compound concentration 1000.0 nM
[20] = biological target: Tyrosine-protein kinase FRK (Homo sapiens) (UniProt P42685); settings: Compound concentration 1000.0 nM
[21] = biological target: Homeodomain-interacting protein kinase 4 (Homo sapiens) (UniProt Q8NE63); settings: Compound concentration 1000.0 nM
[22] = biological target: Tyrosine-protein kinase JAK2 (Homo sapiens) (UniProt O60674); settings: Compound concentration 1000.0 nM
[23] = biological target: Mast/stem cell growth factor receptor Kit (Homo sapiens) (UniProt P10721); settings: Compound concentration 1000.0 nM
[24] = biological target: Mitogen-activated protein kinase kinase kinase kinase 5 (Homo sapiens) (UniProt Q9Y4K4); settings: Compound concentration 1000.0 nM
[25] = biological target: MAP kinase-interacting serine/threonine-protein kinase 1 (Homo sapiens) (UniProt Q9BUB5); settings: Compound concentration 1000.0 nM
[26] = biological target: Mitogen-activated protein kinase kinase kinase 9 (Homo sapiens) (UniProt P80192); settings: Compound concentration 1000.0 nM
[27] = biological target: Serine/threonine-protein kinase MRCK alpha (Homo sapiens) (UniProt Q5VT25); settings: Compound concentration 1000.0 nM
[28] = biological target: Phosphorylase b kinase gamma catalytic chain, skeletal muscle/heart isoform (Homo sapiens) (UniProt Q16816); settings: Compound concentration 1000.0 nM
[29] = tested on: Phosphatidylinositol 4,5-bisphosphate 3-kinase catalytic subunit alpha isoform (Homo sapiens), P42336 [C420R]; settings: Compound concentration 1000.0 nM
[30] = biological target: Phosphatidylinositol 4,5-bisphosphate 3-kinase catalytic subunit gamma isoform (Homo sapiens) (UniProt P48736); settings: Compound concentration 1000.0 nM
[31] = biological target: 1-phosphatidylinositol 3-phosphate 5-kinase (Homo sapiens) (UniProt Q9Y2I7); settings: Compound concentration 1000.0 nM
[32] = biological target: Serine/threonine-protein kinase PLK3 (Homo sapiens) (UniProt Q9H4B4); settings: Compound concentration 1000.0 nM
[33] = biological target: Rho-associated protein kinase 2 (Homo sapiens) (UniProt O75116); settings: Compound concentration 1000.0 nM
[34] = biological target: Ribosomal protein S6 kinase alpha-1 (Homo sapiens) (UniProt Q15418); settings: Compound concentration 1000.0 nM
[35] = biological target: Serine/threonine-protein kinase Sgk1 (Homo sapiens) (UniProt O00141); settings: Compound concentration 1000.0 nM
[36] = biological target: Uncharacterized serine/threonine-protein kinase SBK3 (Homo sapiens) (UniProt P0C264); settings: Compound concentration 1000.0 nM
[37] = biological target: STE20/SPS1-related proline-alanine-rich protein kinase (Homo sapiens) (UniProt Q9UEW8); settings: Compound concentration 1000.0 nM
[38] = biological target: Serine/threonine-protein kinase TBK1 (Homo sapiens) (UniProt Q9UHD2); settings: Compound concentration 1000.0 nM
[39] = biological target: Tyrosine-protein kinase receptor Tie-1 (Homo sapiens) (UniProt P35590); settings: Compound concentration 1000.0 nM
[40] = biological target: Serine/threonine-protein kinase TNNI3K (Homo sapiens) (UniProt Q59H18); settings: Compound concentration 1000.0 nM
[41] = biological target: High affinity nerve growth factor receptor (Homo sapiens) (UniProt P04629); settings: Compound concentration 1000.0 nM
[42] = biological target: Tyrosine-protein kinase ZAP-70 (Homo sapiens) (UniProt P43403); settings: Compound concentration 1000.0 nM
[43] = biological target: 5-hydroxytryptamine receptor 1E (Homo sapiens) (UniProt P28566); settings: Compound concentration 10.0 uM
[44] = biological target: Histamine H3 receptor (Homo sapiens) (UniProt Q9Y5N1); settings: Compound concentration 10.0 uM
[45] = biological target: Muscarinic acetylcholine receptor M5 (Homo sapiens) (UniProt P08912); settings: Compound concentration 10.0 uM

Sequence of Serine/threonine-protein kinase MRCK alpha (Homo sapiens) (Q5VT25 whole entry, canonical isoform): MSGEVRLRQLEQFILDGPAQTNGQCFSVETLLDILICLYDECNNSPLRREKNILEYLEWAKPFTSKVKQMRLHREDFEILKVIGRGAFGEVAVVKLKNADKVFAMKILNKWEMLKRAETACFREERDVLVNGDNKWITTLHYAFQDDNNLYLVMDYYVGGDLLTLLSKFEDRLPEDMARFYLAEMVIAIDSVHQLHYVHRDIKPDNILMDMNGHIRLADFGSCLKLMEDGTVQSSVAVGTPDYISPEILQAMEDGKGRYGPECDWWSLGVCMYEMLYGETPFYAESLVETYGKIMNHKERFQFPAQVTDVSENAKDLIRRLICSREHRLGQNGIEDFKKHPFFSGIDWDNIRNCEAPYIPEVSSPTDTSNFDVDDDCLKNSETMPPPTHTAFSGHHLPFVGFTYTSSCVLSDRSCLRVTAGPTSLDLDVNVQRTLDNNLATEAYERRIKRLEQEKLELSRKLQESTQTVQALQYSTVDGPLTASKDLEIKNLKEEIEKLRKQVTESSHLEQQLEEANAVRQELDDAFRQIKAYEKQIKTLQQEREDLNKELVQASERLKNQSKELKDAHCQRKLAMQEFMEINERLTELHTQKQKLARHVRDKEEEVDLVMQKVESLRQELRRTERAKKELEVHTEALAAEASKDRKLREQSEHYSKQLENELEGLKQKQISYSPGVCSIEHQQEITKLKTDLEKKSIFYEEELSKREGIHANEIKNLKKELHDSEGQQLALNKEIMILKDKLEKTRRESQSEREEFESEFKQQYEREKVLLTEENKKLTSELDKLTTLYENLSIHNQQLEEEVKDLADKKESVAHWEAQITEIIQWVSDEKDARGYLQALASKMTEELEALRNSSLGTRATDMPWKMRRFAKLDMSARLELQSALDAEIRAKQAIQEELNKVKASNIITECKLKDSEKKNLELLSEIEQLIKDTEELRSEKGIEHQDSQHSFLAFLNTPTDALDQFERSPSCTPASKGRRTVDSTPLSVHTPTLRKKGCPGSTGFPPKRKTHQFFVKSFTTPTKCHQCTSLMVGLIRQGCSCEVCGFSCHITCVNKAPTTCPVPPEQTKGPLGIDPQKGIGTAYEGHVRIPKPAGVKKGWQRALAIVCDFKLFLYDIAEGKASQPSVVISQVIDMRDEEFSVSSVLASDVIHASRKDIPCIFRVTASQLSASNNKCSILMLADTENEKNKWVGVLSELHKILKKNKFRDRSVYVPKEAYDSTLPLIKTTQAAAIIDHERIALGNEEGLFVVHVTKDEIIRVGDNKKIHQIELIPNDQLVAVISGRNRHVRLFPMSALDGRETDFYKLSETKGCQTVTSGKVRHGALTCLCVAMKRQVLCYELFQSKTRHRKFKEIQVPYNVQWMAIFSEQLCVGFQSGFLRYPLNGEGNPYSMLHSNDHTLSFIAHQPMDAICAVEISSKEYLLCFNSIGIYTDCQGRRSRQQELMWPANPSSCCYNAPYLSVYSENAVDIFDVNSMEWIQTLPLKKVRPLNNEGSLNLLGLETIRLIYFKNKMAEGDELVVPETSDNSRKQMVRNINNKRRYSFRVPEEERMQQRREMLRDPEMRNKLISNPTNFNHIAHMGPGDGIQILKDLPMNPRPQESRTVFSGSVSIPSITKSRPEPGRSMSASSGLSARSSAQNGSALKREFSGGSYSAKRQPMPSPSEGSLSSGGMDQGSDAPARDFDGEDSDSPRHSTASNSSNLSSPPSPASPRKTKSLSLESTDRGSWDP
Sequence of Tyrosine-protein kinase ZAP-70 (Homo sapiens) (P43403 whole entry): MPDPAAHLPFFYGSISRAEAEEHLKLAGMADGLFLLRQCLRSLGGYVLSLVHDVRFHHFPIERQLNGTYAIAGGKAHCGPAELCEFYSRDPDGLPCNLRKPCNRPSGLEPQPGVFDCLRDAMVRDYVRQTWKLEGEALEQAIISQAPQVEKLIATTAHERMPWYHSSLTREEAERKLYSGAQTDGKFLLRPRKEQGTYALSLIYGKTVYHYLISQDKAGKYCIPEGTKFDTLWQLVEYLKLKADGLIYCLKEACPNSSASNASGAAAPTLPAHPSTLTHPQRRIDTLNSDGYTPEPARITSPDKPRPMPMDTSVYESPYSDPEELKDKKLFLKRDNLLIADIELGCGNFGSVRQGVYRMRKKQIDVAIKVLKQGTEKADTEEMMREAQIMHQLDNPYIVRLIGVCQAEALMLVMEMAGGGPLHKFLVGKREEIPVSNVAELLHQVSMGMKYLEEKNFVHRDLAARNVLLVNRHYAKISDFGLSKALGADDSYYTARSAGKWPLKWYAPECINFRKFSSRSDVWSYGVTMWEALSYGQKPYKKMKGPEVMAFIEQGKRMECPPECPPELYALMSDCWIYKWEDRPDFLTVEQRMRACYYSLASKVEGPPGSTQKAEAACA
Sequence of Phosphorylase b kinase gamma catalytic chain, skeletal muscle/heart isoform (Homo sapiens) (Q16816 whole entry, looked up, canonical isoform): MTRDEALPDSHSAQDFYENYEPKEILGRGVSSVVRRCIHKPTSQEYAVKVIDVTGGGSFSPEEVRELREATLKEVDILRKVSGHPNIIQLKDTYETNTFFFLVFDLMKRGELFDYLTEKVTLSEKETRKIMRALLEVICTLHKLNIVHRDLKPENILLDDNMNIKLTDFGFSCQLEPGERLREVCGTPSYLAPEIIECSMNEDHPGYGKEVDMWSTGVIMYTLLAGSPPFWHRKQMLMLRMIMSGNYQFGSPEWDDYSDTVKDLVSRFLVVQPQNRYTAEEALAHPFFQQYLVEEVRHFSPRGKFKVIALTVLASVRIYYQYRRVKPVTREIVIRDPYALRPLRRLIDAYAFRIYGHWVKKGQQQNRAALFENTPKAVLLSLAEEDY
Sequence of Tyrosine-protein kinase Fgr (Homo sapiens) (P09769 2-529 limits assumed): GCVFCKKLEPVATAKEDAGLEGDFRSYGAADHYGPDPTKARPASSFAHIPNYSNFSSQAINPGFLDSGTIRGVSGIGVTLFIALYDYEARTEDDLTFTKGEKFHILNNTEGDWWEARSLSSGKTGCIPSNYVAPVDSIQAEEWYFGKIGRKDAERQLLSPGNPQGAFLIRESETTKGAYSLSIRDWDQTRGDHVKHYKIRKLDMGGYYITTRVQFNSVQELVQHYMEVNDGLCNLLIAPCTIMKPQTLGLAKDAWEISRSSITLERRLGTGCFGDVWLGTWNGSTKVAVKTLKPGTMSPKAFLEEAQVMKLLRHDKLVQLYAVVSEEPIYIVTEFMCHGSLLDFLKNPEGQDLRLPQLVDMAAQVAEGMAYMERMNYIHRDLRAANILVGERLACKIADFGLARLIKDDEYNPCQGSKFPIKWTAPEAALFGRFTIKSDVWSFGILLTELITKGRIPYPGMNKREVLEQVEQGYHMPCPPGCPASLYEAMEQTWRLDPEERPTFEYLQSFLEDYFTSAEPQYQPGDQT
Sequence of Atypical kinase COQ8B, mitochondrial (Homo sapiens) (Q96D53 whole entry): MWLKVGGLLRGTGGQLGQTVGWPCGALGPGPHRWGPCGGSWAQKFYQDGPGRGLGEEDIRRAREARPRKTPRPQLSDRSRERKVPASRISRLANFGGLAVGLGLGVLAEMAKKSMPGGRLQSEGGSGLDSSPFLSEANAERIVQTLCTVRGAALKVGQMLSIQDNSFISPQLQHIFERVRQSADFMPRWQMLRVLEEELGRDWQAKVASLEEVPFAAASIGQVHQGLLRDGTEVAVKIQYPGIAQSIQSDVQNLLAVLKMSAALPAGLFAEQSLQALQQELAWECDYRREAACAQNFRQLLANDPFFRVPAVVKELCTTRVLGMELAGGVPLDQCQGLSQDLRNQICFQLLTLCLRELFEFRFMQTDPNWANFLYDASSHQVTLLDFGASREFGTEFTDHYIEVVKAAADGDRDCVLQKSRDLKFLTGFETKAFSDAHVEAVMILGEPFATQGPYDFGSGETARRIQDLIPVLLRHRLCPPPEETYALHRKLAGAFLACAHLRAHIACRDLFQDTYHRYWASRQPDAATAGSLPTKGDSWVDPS
Sequence of Casein kinase I isoform gamma-3 (Homo sapiens) (Q9Y6M4 whole entry, looked up, canonical isoform): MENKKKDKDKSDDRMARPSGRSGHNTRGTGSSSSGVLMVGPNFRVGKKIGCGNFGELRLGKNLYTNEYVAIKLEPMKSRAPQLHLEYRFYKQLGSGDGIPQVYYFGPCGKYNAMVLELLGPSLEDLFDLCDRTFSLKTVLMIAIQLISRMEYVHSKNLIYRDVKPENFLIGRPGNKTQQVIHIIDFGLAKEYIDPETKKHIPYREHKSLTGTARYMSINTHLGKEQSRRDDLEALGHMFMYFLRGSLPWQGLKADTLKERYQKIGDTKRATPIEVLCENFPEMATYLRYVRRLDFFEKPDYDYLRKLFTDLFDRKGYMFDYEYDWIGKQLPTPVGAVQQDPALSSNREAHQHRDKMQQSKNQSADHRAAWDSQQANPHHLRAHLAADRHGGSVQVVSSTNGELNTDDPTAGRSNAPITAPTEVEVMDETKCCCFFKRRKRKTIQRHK
Sequence of Activin receptor type-2A (Homo sapiens) (P27037 whole entry): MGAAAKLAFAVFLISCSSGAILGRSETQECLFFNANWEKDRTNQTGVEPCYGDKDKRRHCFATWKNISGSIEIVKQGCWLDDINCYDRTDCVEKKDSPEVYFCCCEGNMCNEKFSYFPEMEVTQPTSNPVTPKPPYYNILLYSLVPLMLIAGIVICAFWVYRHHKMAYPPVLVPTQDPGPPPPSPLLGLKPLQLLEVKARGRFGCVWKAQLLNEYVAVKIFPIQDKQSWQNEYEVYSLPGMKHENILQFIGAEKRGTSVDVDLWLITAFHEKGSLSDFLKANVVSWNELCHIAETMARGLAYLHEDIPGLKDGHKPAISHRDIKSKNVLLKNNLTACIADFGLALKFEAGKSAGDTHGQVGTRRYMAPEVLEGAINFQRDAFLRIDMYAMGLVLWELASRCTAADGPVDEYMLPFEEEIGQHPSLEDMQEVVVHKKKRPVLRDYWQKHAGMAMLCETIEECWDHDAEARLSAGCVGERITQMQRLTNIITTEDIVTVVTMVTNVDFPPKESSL

CS(=O)(=O)c1cc(C2(NC(=O)c3cncc4c3cnn4-c3ccc(F)cc3)CC2)ccn1 [BI 639667]
residual activity [1]: 91%
residual activity [2]: 71%
residual activity [3]: 100%
residual activity [4]: 98%
residual activity [5]: 100%
residual activity [6]: 100%
residual activity [7]: 89%
residual activity [8]: 80%
residual activity [9]: 90%
residual activity [10]: 69%
residual activity [11]: 100%
residual activity [12]: 100%
residual activity [13]: 95%
residual activity [14]: 100%
residual activity [15]: 100%
residual activity [16]: 100%
residual activity [17]: 100%
residual activity [18]: 100%
residual activity [19]: 58%
residual activity [20]: 58%
residual activity [21]: 100%
residual activity [22]: 100%
residual activity [23]: 100%
residual activity [24]: 98%
residual activity [25]: 47%
residual activity [26]: 100%
residual activity [27]: 100%
residual activity [28]: 78%
residual activity [29]: 83%
residual activity [30]: 82%
residual activity [31]: 79%
residual activity [32]: 68%
residual activity [33]: 75%
residual activity [34]: 77%
residual activity [35]: 97%
residual activity [36]: 100%
residual activity [37]: 58%
residual activity [38]: 94%
residual activity [39]: 73%
residual activity [40]: 64%
residual activity [41]: 96%
residual activity [42]: 71%
inhibition [43]: 14.8%
inhibition [44]: 29.6%
inhibition [45]: 3.92%

CS(=O)(=O)NCC[C@H](NC(=O)c1cncc2c1cnn2-c1ccc(F)cc1)c1ccnc(S(C)(=O)=O)c1 [BI 9307]
residual activity [1]: 95%
residual activity [2]: 100%
residual activity [3]: 100%
residual activity [4]: 81%
residual activity [5]: 95%
residual activity [6]: 100%
residual activity [7]: 100%
residual activity [8]: 96%
residual activity [9]: 100%
residual activity [10]: 84%
residual activity [11]: 96%
residual activity [12]: 100%
residual activity [13]: 91%
residual activity [14]: 84%
residual activity [15]: 100%
residual activity [16]: 97%
residual activity [17]: 100%
residual activity [18]: 100%
residual activity [19]: 99%
residual activity [20]: 100%
residual activity [21]: 100%
residual activity [22]: 100%
residual activity [23]: 100%
residual activity [24]: 83%
residual activity [25]: 95%
residual activity [26]: 97%
residual activity [27]: 100%
residual activity [28]: 75%
residual activity [29]: 98%
residual activity [30]: 80%
residual activity [31]: 76%
residual activity [32]: 100%
residual activity [33]: 100%
residual activity [34]: 100%
residual activity [35]: 100%
residual activity [36]: 100%
residual activity [37]: 80%
residual activity [38]: 94%
residual activity [39]: 100%
residual activity [40]: 100%
residual activity [41]: 97%
residual activity [42]: 80%
inhibition [43]: 8.79%
inhibition [44]: 18.9%
inhibition [45]: 5.99%
